Patent US20140087003A1, “METHOD FOR TREATING VENOMOUS BITES AND STINGS” (priority 2012, published 2014)

Test: pH of the solution
Type: physicochemical

SMILES | pH of strong basic solutions used as high pH controls
[K+].[OH-] [potassium hydroxide] | 14
[Na+].[OH-] [sodium hydroxide] | 14
